Patent US20250144249A1, “METHODS USING SURFACE-EXPRESSIBLE ACTIVATABLE EPITOPES TO LOCALIZE AND/OR TREAT DISEASED CELLS” (EARLI Inc., priority 2022, published 2025)
“Also recorded” adds a separate entry of the source.

Experiments:
Type in all cases: cell-based, human
H1299 cells [1] = assay: FACS detection of engineered DLL3 on the surface of transfected H1299 cells (Example 4); settings: for expression level of DLL3 on the cell surface / percent positive (DLL3-positive cells): H1299 cells transfected with construct; for expression level of DLL3 on the cell surface: fluorescently labeled anti-DLL3 antibody, FACS, compared to wild-type DLL3 (NP116, NP127)
From the text: Each of the six engineered DLL3 constructs ([…]) and two different wild-type DLL3 constructs (NP116 and NP127) was separately introduced to human non-small cell lung carcinoma, H1299 cells (also known as NCI-H1299 or CRL-5803) by transfection to analyze the expression of engineered DLL3. H1299 cells were then stained with fluorescently labeled anti-DLL3 antibodies and analyzed by fluorescence-activated cell sorting (FACS) to detect DLL3 expression. Panels A2-G2 in FIG. 8B, and NP116, NP127, NP244-NP249, and NP268 in FIG. 8C show the amount of DLL3 expressed on the cell surface corresponding to panels A1-G1 in FIG. 8A. […] Specifically, NP249 and NP247 increased percent positive to ˜80% and ˜94%, respectively (FIG. 8C).

H1299 cells [2] = assay: cell killing assay, CellTiter Glo 2.0 (Example 7); settings: treated with anti-DLL3-PBD, 72 hours, compared to NP116, FIG. 13B
Protocol: Next, H1299 cells stably expressing WT or engineered DLL3 were seeded 5,000 cells/well in 96 well plates. 24 hours after seeding, H1299 cells were treated with a titration of either an unconjugated anti-DLL3 antibody or an anti-DLL3 antibody conjugated to a PBD toxin (anti-DLL3-PBD). 72 hours after antibody treatment, cell viability was assessed using the CellTiter Glo 2.0 assay kit and analyzed on a Promega GloMax Navigator.

H1299 cells [3] = assay: number of copies of anti-DLL3 antibody bound to DLL3 on the cell surface (quantification bead standard curve)
Protocol: Next, a physical number of copies of anti-DLL3 antibody bound to DLL3 expressed on the cell surface was assessed. H1299 cells were seeded into 96 well plate. 24 hours after seeding, H1299 cells were transfected with nanoplasmid vectors comprising NP116 (wild-type control), NP247 (with a single DLL3 epitope in the CD8 scaffold), or NP298 (with two DLL3 epitopes in the CD8 scaffold) via lipofectamine according to the manufacture's protocols. H1299 cells were then stained with fluorescently labeled anti-DLL3 antibodies for FACS analysis. Cells and commercially available beads for epitope quantification were then stained with an anti-DLL3 secondary antibody conjugated to Alexa Fluor® 647 (AF647). H1299 cells were subsequently analyzed on a BD Biosciences FACSAria IIu (FIGS. 10A-10C). The number of epitopes were calculated by comparing the cell's expression to the quantification bead standard curve (FIGS. 10B-10C).
Each of NP247 and NP298 constructs and wild-type DLL3 construct (NP116) was separately introduced to H1299 cells by transfection to analyze the expression of engineered DLL3. […] H1299 cells stably expressing wild-type or engineered DLL3 and commercially available beads for epitope quantification were then stained with an anti-DLL3 secondary antibody conjugated to Alexa Fluor® 647 (AF647). H1299 cells were subsequently analyzed on a BD Biosciences FACSAria IIu. […]

H1299 cells [4] = assay: in vitro cell killing assay with anti-DLL3-PBD (Example 4); settings: H1299 cells transfected with construct, treated with anti-DLL3-PBD; compared to NP116 or NP127; FIG. 8D
Protocol: Next, in vitro cell killing assay was performed to determine the ability of anti-DLL3 antibodies conjugated with a cytotoxic payload (anti-DLL3-PBD) to induce cytotoxicity. The anti-DLL3-PBD was introduced to H1299 cells transfected with NP247 (G1 in FIG. 8A), NP249 (D1 in FIG. 8A), NP116 (wild-type control), or NP127 (wild-type control).

Molecule: NP246: engineered DLL3 construct, DLL3 residues 27-492, CD8a SP/CD28 transmembrane helix; SEQ ID NO: 36
- expression level of DLL3 on the cell surface (H1299 cells [1]): increased the expression level of DLL3

Molecule: NP247: engineered DLL3 construct, DLL3 residues 27-254, CD8a hinge, CD28 transmembrane helix; SEQ ID NO: 37
- loss of viability / susceptibility to cell death of cells expressing the construct (H1299 cells [2]): may be more susceptible to cell death; also recorded: substantial loss of viability
- percent positive (DLL3-positive cells) (H1299 cells [1]; FIG. 8C): ~94%
- expression level of DLL3 on the cell surface (H1299 cells [1]): increased the expression level of DLL3
- mean fluorescence intensity (H1299 cells [1]; compared to DLL3 wild-type or the DLL3 stable cell line, FIG. 8C): significantly higher mean fluorescence intensity
- increase in copy number of anti-DLL3 antibodies compared to cells expressing NP116 (H1299 cells [3]; Example 5, H1299 cells transfected with nanoplasmid vectors, FIG. 10C): 13 fold
- increase in copy number of anti-DLL3 antibodies compared to cells expressing NP116 (H1299 cells [3]; Example 7, FIG. 13A): 21 fold
- loss of viability of cells expressing the construct (H1299 cells [4]): substantial loss in viability; also recorded: substantial loss of viability

B1: NP245: engineered DLL3 construct, DLL3 residues 27-492 with PD-L1 signal peptide/transmembrane helix; SEQ ID NO: 35 (protein)
chain: MRIFAVFIFMTYWHLLNAAGVFELQIHSFGPGPGPGAPRSPCSARLPCRLFFRVCLKPGLSEEAAESPCALGAALSARGPVYTEQPGAPAPDLPLPDGLLQVPFRDAWPGTFSFIIETWREELGDQIGGPAWSLLARVAGRRRLAAGGPWARDIQRAGAWELRFSYRARCEPPAVGTACTRLCRPRSAPSRCGPGLRPCAPLEDECEAPLVCRAGCSPEHGFCEQPGECRCLEGWTGPLCTVPVSTSSCLSPRGPSSATTGCLVPGPGPCDGNPCANGGSCSETPRSFECTCPRGFYGLRCEVSGVTCADGPCFNGGLCVGGADPDSAYICHCPPGFQGSNCEKRVDRCSLQPCRNGGLCLDLGHALRCRCRAGFAGPRCEHDLDDCAGRACANGGTCVEGGGAHRCSCALGFGGRDCRERADPCAARPCAHGGRCYAHFSGLVCACAPGYMGARCEFPVHPDGASALPAAPPGLRPGDPQRYLLPLAHPPNERTHLVILGAILLCLGVALTFIFRHMGGGSGGGSAYPYDVPDYAAYPYDVPDYA
- expression level of DLL3 on the cell surface (H1299 cells [1]): increased the expression level of DLL3

B2: NP244: engineered DLL3 construct, DLL3 residues 27-492 with EGFR signal peptide/transmembrane helix; SEQ ID NO: 34 (protein)
chain: MRPSGTAGAALLALLAALCPASRAAGVFELQIHSFGPGPGPGAPRSPCSARLPCRLFFRVCLKPGLSEEAAESPCALGAALSARGPVYTEQPGAPAPDLPLPDGLLQVPFRDAWPGTFSFIIETWREELGDQIGGPAWSLLARVAGRRRLAAGGPWARDIQRAGAWELRFSYRARCEPPAVGTACTRLCRPRSAPSRCGPGLRPCAPLEDECEAPLVCRAGCSPEHGFCEQPGECRCLEGWTGPLCTVPVSTSSCLSPRGPSSATTGCLVPGPGPCDGNPCANGGSCSETPRSFECTCPRGFYGLRCEVSGVTCADGPCFNGGLCVGGADPDSAYICHCPPGFQGSNCEKRVDRCSLQPCRNGGLCLDLGHALRCRCRAGFAGPRCEHDLDDCAGRACANGGTCVEGGGAHRCSCALGFGGRDCRERADPCAARPCAHGGRCYAHFSGLVCACAPGYMGARCEFPVHPDGASALPAAPPGLRPGDPQRYLSIATGMVGALLLLLVVALGIGLFMRRRHIVRKHMGGGSGGGSAYPYDVPDYAAYPYDVPDYA
- expression level of DLL3 on the cell surface (H1299 cells [1]): did not increase the expression level of DLL3

B3: NP249: engineered DLL3 construct, DLL3 residues 27-492 with CD73 SP/GPI-anchor motif; SEQ ID NO: 39, 46 (protein)
chain: MCPRAARAPATLLLALGAVLWPAAGAAGVFELQIHSFGPGPGPGAPRSPCSARLPCRLFFRVCLKPGLSEEAAESPCALGAALSARGPVYTEQPGAPAPDLPLPDGLLQVPFRDAWPGTFSFIIETWREELGDQIGGPAWSLLARVAGRRRLAAGGPWARDIQRAGAWELRFSYRARCEPPAVGTACTRLCRPRSAPSRCGPGLRPCAPLEDECEAPLVCRAGCSPEHGFCEQPGECRCLEGWTGPLCTVPVSTSSCLSPRGPSSATTGCLVPGPGPCDGNPCANGGSCSETPRSFECTCPRGFYGLRCEVSGVTCADGPCFNGGLCVGGADPDSAYICHCPPGFQGSNCEKRVDRCSLQPCRNGGLCLDLGHALRCRCRAGFAGPRCEHDLDDCAGRACANGGTCVEGGGAHRCSCALGFGGRDCRERADPCAARPCAHGGRCYAHFSGLVCACAPGYMGARCEFPVHPDGASALPAAPPGLRPGDPQRYLGGSSTGSHCHGSFSLIFLSLWAVIFVLYQ
- percent positive (DLL3-positive cells) (H1299 cells [1]; FIG. 8C): ~80%
- expression level of DLL3 on the cell surface (H1299 cells [1]): increased the expression level of DLL3
- loss of viability of cells expressing the construct (H1299 cells [4]): substantial loss in viability; also recorded: substantial loss of viability
